The subject of the assay is HCT116 colorectal cancer cells. Description: Cisplatin sensitization assay (96 h MTS cell viability).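 Note: compound concentration needed to lower the IC50 of Cisplatin alone by a set fold.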 The format is cell-based. The conditions noted are these: Cisplatin sensitization value. The essentials:
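The MTS viability read, after 1 h with reagent, followed 96 h of co-treatment at 37° C. in 5% CO2. Both compound and cisplatin were titrated 2-fold from a 10 μM top final concentration in a complete concentration matrix on HCT116 cells. Scores +++/++/+ reflect cisplatin sensitization value ranges.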

Turning to `CN(C)C(=O)C1CN(c2ccncc2NC(=O)c2c(N)nn3cc(F)cnc23)CCO1` (stereo not shown) [I-N-234, 4-(3-(2-amino-6-fluoropyrazolo[1,5-a]pyrimidine-3-carboxamido)pyridin-4-yl)-N,N-dimethylmorpholine-2-carboxamide], the “Cisplatin Sensitization Assay” value is “+ (Compounds with a Cisplatin sensitization value >0.2 μM but <5 μM are marked with “+.”)”. The same measure for `Cn1ccnc1-c1ccncc1NC(=O)c1c(N)nn2cc(F)cnc12` [I-C-55, 2-amino-6-fluoro-N-(4-(1-methyl-1H-imidazol-2-yl)pyridin-3-yl)pyrazolo[1,5-a]pyrimidine-3-carboxamide]: “+ (Compounds with a Cisplatin sensitization value >0.2 μM but <5 μM are marked with “+.”)”; for `Nc1nn2cc(F)cnc2c1C(=O)Nc1cnccc1-c1ccc(C(=O)N2CCNCC2)cc1` [I-C-44, 2-amino-6-fluoro-N-(4-(4-(piperazine-1-carbonyl)phenyl)pyridin-3-yl)pyrazolo[1,5-a]pyrimidine-3-carboxamide]: “+++ (Compounds with a Cisplatin sensitization value of <0.02 μM are marked with “+++.”)”. The same measure for `Nc1nn2cc(F)cnc2c1C(=O)Nc1cnccc1N1CCC(C(=O)N2CC3(COC3)C2)CC1` [I-G-88, N-(4-(4-(2-oxa-6-azaspiro[3.3]heptane-6-carbonyl)piperidin-1-yl)pyridin-3-yl)-2-amino-6-fluoropyrazolo[1,5-a]pyrimidine-3-carboxamide]: “+++ (Compounds with a Cisplatin sensitization value of <0.02 μM are marked with “+++.”)”. Consider `Nc1nn2cc(F)cnc2c1C(=O)Nc1cncc(F)c1N1CCC(C(=O)N2CCN(C3CC3)CC2)CC1` [I-G-13, 2-amino-N-(4-(4-(4-cyclopropylpiperazine-1-carbonyl)piperidin-1-yl)-5-fluoropyridin-3-yl)-6-fluoropyrazolo[1,5-a]pyrimidine-3-carboxamide], for which the “Cisplatin Sensitization Assay” value is “+++ (Compounds with a Cisplatin sensitization value of <0.02 μM are marked with “+++.”)”.

Consider `Nc1nn2cc(F)cnc2c1C(=O)Nc1cncc(F)c1N1CCN(C(=O)CN2CCC2)CC1` [I-N-160, 2-amino-N-(4-(4-(2-(azetidin-1-yl)acetyl)piperazin-1-yl)-5-fluoropyridin-3-yl)-6-fluoropyrazolo[1,5-a]pyrimidine-3-carboxamide], for which the “Cisplatin Sensitization Assay” value was “+++ (Compounds with a Cisplatin sensitization value of <0.02 μM are marked with “+++.”)”. As to `Cc1nc(C(F)(F)F)cn1-c1ccncc1NC(=O)c1c(N)nn2cc(F)cnc12` [I-N-30, 2-amino-6-fluoro-N-(4-(2-methyl-4-(trifluoromethyl)-1H-imidazol-1-yl)pyridin-3-yl)pyrazolo[1,5-a]pyrimidine-3-carboxamide], the “Cisplatin Sensitization Assay” value is recorded as “++ (Compounds with a Cisplatin sensitization value >0.02 μM but <0.2 μM are marked with “++.”)”. As to `Nc1nn2cc(F)cnc2c1C(=O)Nc1cnccc1N1CCC(CN2CCC(F)(F)C2)CC1` [I-N-197, 2-amino-N-(4-(4-((3,3-difluoropyrrolidin-1-yl)methyl)piperidin-1-yl)pyridin-3-yl)-6-fluoropyrazolo[1,5-a]pyrimidine-3-carboxamide], the “Cisplatin Sensitization Assay” value is “+++ (Compounds with a Cisplatin sensitization value of <0.02 μM are marked with “+++.”)”. Next, `Nc1nn2cc(F)cnc2c1C(=O)Nc1cncc(Cl)c1N1CCNCC1` [I-N-126, 2-amino-N-(5-chloro-4-(piperazin-1-yl)pyridin-3-yl)-6-fluoropyrazolo[1,5-a]pyrimidine-3-carboxamide]: “+++ (Compounds with a Cisplatin sensitization value of <0.02 μM are marked with “+++.”)”.

With `CN1CCOC2(CCN(c3ccncc3NC(=O)c3c(N)nn4cc(F)cnc34)CC2)C1` [I-N-183, 2-amino-6-fluoro-N-(4-(4-methyl-1-oxa-4,9-diazaspiro[5.5]undecan-9-yl)pyridin-3-yl)pyrazolo[1,5-a]pyrimidine-3-carboxamide], the “Cisplatin Sensitization Assay” value is recorded as “+++ (Compounds with a Cisplatin sensitization value of <0.02 μM are marked with “+++.”)”. The same measure for `CN1CCN(C(=O)C2CCN(c3ccncc3NC(=O)c3c(N)nn4cc(F)cnc34)CC2)CC1` [I-G-1, 2-amino-6-fluoro-N-(4-(4-(4-methylpiperazine-1-carbonyl)piperidin-1-yl)pyridin-3-yl)pyrazolo[1,5-a]pyrimidine-3-carboxamide]: “+++ (Compounds with a Cisplatin sensitization value of <0.02 μM are marked with “+++.”)”.

On to `Nc1nn2cc(Cl)cnc2c1C(=O)Nc1cnccc1OC1CCOCC1` [I-O-61, 2-amino-6-chloro-N-(4-((tetrahydro-2H-pyran-4-yl)oxy)pyridin-3-yl)pyrazolo[1,5-a]pyrimidine-3-carboxamide], for which the “Cisplatin Sensitization Assay” value is reported as “+++ (Compounds with a Cisplatin sensitization value of <0.02 μM are marked with “+++.”)”.

In the case of `COC1(CN(C)C)CCN(c2ccncc2NC(=O)c2c(N)nn3cc(Cl)cnc23)CC1` [I-N-46, 2-amino-6-chloro-N-(4-(4-((dimethylamino)methyl)-4-methoxypiperidin-1-yl)pyridin-3-yl)pyrazolo[1,5-a]pyrimidine-3-carboxamide], the “Cisplatin Sensitization Assay” value is on record as “+++ (Compounds with a Cisplatin sensitization value of <0.02 μM are marked with “+++.”)”. Regarding `Nc1nn2cc(F)cnc2c1C(=O)Nc1cnccc1N1CCC(C(=O)N2CC3(CCO3)C2)CC1` [I-G-90, N-(4-(4-(1-oxa-6-azaspiro[3.3]heptane-6-carbonyl)piperidin-1-yl)pyridin-3-yl)-2-amino-6-fluoropyrazolo[1,5-a]pyrimidine-3-carboxamide], the “Cisplatin Sensitization Assay” value was “+++ (Compounds with a Cisplatin sensitization value of <0.02 μM are marked with “+++.”)”.

Consider `COCCOc1ccncc1NC(=O)c1c(N)nn2cc(Cl)cnc12` [I-O-55, 2-amino-6-chloro-N-(4-(2-methoxyethoxy)pyridin-3-yl)pyrazolo[1,5-a]pyrimidine-3-carboxamide], for which the “Cisplatin Sensitization Assay” value was “++ (Compounds with a Cisplatin sensitization value >0.02 μM but <0.2 μM are marked with “++.”)”.

As to `CN1CCC(N(C)S(=O)(=O)C2CCN(c3c(F)cncc3NC(=O)c3c(N)nn4cc(F)cnc34)CC2)CC1` [I-N-148, 2-amino-6-fluoro-N-(5-fluoro-4-(4-(N-methyl-N-(1-methylpiperidin-4-yl)sulfamoyl)piperidin-1-yl)pyridin-3-yl)pyrazolo[1,5-a]pyrimidine-3-carboxamide], the “Cisplatin Sensitization Assay” value was “+++ (Compounds with a Cisplatin sensitization value of <0.02 μM are marked with “+++.”)”. The same measure for `Nc1nn2cc(Cl)cnc2c1C(=O)Nc1cnccc1N1CCN2CCC[C@@H]2C1` [I-N-65, (R)-2-amino-6-chloro-N-(4-(hexahydropyrrolo[1,2-a]pyrazin-2(1H)-yl)pyridin-3-yl)pyrazolo[1,5-a]pyrimidine-3-carboxamide]: “+ (Compounds with a Cisplatin sensitization value >0.2 μM but <5 μM are marked with “+.”)”; for `Nc1nn2cc(F)cnc2c1C(=O)Nc1cnccc1N1CCC(S(=O)(=O)N2CCOCC2)CC1` [I-N-170, 2-amino-6-fluoro-N-(4-(4-(morpholinosulfonyl)piperidin-1-yl)pyridin-3-yl)pyrazolo[1,5-a]pyrimidine-3-carboxamide]: “+++ (Compounds with a Cisplatin sensitization value of <0.02 μM are marked with “+++.”)”.

In the case of `Nc1nn2cc(Cl)cnc2c1C(=O)Nc1cncc(F)c1N1CCN(C2COC2)CC1` [I-N-117, 2-amino-6-chloro-N-(5-fluoro-4-(4-(oxetan-3-yl)piperazin-1-yl)pyridin-3-yl)pyrazolo[1,5-a]pyrimidine-3-carboxamide], the “Cisplatin Sensitization Assay” value is “+++ (Compounds with a Cisplatin sensitization value of <0.02 μM are marked with “+++.”)”.

With `COC(=O)[C@H]1CC[C@H](Oc2ccncc2NC(=O)c2c(N)nn3cc(F)cnc23)CC1` [I-O-13, (1r,4r)-methyl 4-((3-(2-amino-6-fluoropyrazolo[1,5-a]pyrimidine-3-carboxamido)pyridin-4-yl)oxy)cyclohexanecarboxylate], the “Cisplatin Sensitization Assay” value is given as “+++ (Compounds with a Cisplatin sensitization value of <0.02 μM are marked with “+++.”)”. On to `CN1C[C@@H]2CCN(c3ccncc3NC(=O)c3c(N)nn4cc(F)cnc34)C[C@@H]2C1=O` [I-N-224, 2-amino-6-fluoro-N-(4-((3aR,7aR)-2-methyl-3-oxohexahydro-1H-pyrrolo[3,4-c]pyridin-5(6H)-yl)pyridin-3-yl)pyrazolo[1,5-a]pyrimidine-3-carboxamide], for which the “Cisplatin Sensitization Assay” value was “+ (Compounds with a Cisplatin sensitization value >0.2 μM but <5 μM are marked with “+.”)”. As to `Nc1nn2cc(Cl)cnc2c1C(=O)Nc1cnccc1N1CCNCC1` [I-N-88, 2-amino-6-chloro-N-(4-(piperazin-1-yl)pyridin-3-yl)pyrazolo[1,5-a]pyrimidine-3-carboxamide], the “Cisplatin Sensitization Assay” value is on record as “++ (Compounds with a Cisplatin sensitization value >0.02 μM but <0.2 μM are marked with “++.”)”. The same measure for `COc1ccc(-c2ccncc2NC(=O)c2c(N)nn3cc(F)cnc23)cn1` [I-C-27, 2-amino-6-fluoro-N-(6-methoxy-[3,4′-bipyridin]-3′-yl)pyrazolo[1,5-a]pyrimidine-3-carboxamide]: “++ (Compounds with a Cisplatin sensitization value >0.02 μM but <0.2 μM are marked with “++.”)”; for `Nc1nn2cc(Cl)cnc2c1C(=O)Nc1cnccc1OCCCO` [I-O-53, 2-amino-6-chloro-N-(4-(3-hydroxypropoxy)pyridin-3-yl)pyrazolo[1,5-a]pyrimidine-3-carboxamide]: “+++ (Compounds with a Cisplatin sensitization value of <0.02 μM are marked with “+++.”)”. The same measure for `CN(C)S(=O)(=O)C1CCN(c2c(F)cncc2NC(=O)c2c(N)nn3cc(F)cnc23)CC1` [I-N-146, 2-amino-N-(4-(4-(N,N-dimethylsulfamoyl)piperidin-1-yl)-5-fluoropyridin-3-yl)-6-fluoropyrazolo[1,5-a]pyrimidine-3-carboxamide]: “+++ (Compounds with a Cisplatin sensitization value of <0.02 μM are marked with “+++.”)”.
